Reference: ChEMBL document CHEMBL5505979, “Novel aminothiazoximone-corbelled ethoxycarbonylpyrimidones with antibiofilm activity to conquer Gram-negative bacteria through potential multitargeting effects” (Eur J Med Chem, 2024)
Values after ≈ are worked out from the molar mass of the structure shown. Values joined by “and” are separate entries in the source; they are usually repeats but may differ in a detail not shown here. Equal entries are not always repeated.

Tests used:
Format in all cases: functional
[1] = test system: Staphylococcus aureus; assay: Anti-bacterial activity against Staphylococcus aureus ATCC 25923 assessed as inhibition of bacterial growth
[2] = test system: Klebsiella pneumoniae; assay: Anti-bacterial activity against Klebsiella pneumoniae KPN325 assessed as inhibition of bacterial growth
[3] = test system: Staphylococcus aureus; assay: Anti-bacterial activity against Staphylococcus aureus ATCC 29213 assessed as inhibition of bacterial growth
[4] = test system: Pseudomonas aeruginosa; assay: Anti-bacterial activity against Pseudomonas aeruginosa ATCC 27853 assessed as inhibition of bacterial growth
[5] = test system: Staphylococcus aureus; assay: Anti-bacterial activity against Staphylococcus aureus CMCC (B) 26003 assessed as inhibition of bacterial growth
[6] = test system: Staphylococcus aureus; assay: Anti-bacterial activity against Staphylococcus aureus ATCC 12600 assessed as inhibition of bacterial growth
[7] = test system: Candida albicans; assay: Anti-fungal activity against Candida albicans assessed as inhibition of fungal growth
[8] = test system: Candida parapsilosis; assay: Anti-fungal activity against Candida parapsilosis assessed as inhibition of fungal growth
[9] = test system: Staphylococcus aureus; assay: Anti-bacterial activity against Staphylococcus aureus ATCC 1708 assessed as inhibition of bacterial growth
[10] = test system: Pseudomonas aeruginosa; assay: Anti-bacterial activity against Pseudomonas aeruginosa ST235 assessed as inhibition of bacterial growth
[11] = test system: Pseudomonas aeruginosa; assay: Anti-bacterial activity against Pseudomonas aeruginosa ATCC 15442 assessed as inhibition of bacterial growth
[12] = test system: Staphylococcus aureus; assay: Anti-bacterial activity against methicillin-resistant Staphylococcus aureus ATCC 43300 assessed as inhibition of bacterial growth
[13] = test system: Candida tropicalis; assay: Anti-fungal activity against Candida tropicalis assessed as inhibition of fungal growth
[14] = test system: Staphylococcus aureus; assay: Anti-bacterial activity against Staphylococcus aureus ATCC 6538 assessed as inhibition of bacterial growth
[15] = test system: Staphylococcus aureus; assay: Anti-bacterial activity against methicillin-resistant Staphylococcus aureus N315 assessed as inhibition of bacterial growth
[16] = test system: Pseudomonas aeruginosa; assay: Anti-bacterial activity against Pseudomonas aeruginosa CMCC (B) 10104 assessed as inhibition of bacterial growth
[17] = test system: Escherichia coli; assay: Anti-bacterial activity against Escherichia coli JM109 assessed as inhibition of bacterial growth
[18] = test system: Pseudomonas aeruginosa; assay: Anti-bacterial activity against Pseudomonas aeruginosa ATCC 9027 assessed as inhibition of bacterial growth
[19] = test system: Escherichia coli; assay: Anti-bacterial activity against Escherichia coli ATCC 25922 assessed as inhibition of bacterial growth
[20] = test system: Candida albicans; assay: Anti-fungal activity against Candida albicans 90023 assessed as inhibition of fungal growth
[21] = test system: Enterococcus faecalis; assay: Anti-bacterial activity against Enterococcus faecalis V583 assessed as inhibition of bacterial growth
[22] = test system: Staphylococcus aureus; assay: Anti-bacterial activity against Staphylococcus aureus CMCC (B) 26001 assessed as inhibition of bacterial growth
[23] = test system: Acinetobacter baumannii; assay: Anti-bacterial activity against Acinetobacter baumannii R674 assessed as inhibition of bacterial growth
[24] = Staphylococcus aureus, ATCC 25923, read-out: MIC
[25] = Klebsiella pneumoniae, KPN325, read-out: MIC
[26] = Staphylococcus aureus, ATCC 29213, read-out: MIC
[27] = Staphylococcus aureus, ATCC 12600, read-out: MIC
[28] = Candida albicans, read-out: MIC
[29] = Lodderomyces parapsilosis, read-out: MIC
[30] = Pseudomonas aeruginosa, ST235, read-out: MIC
[31] = Pseudomonas aeruginosa, CMCC (B) 10104, read-out: MIC
[32] = Pseudomonas aeruginosa, ATCC 27853, read-out: MIC
[33] = Staphylococcus aureus, ATCC 1708, read-out: MIC
[34] = Pseudomonas aeruginosa, ATCC 15442, read-out: MIC
[35] = Staphylococcus aureus, ATCC 43300, read-out: MIC
[36] = Candida tropicalis, read-out: MIC
[37] = Staphylococcus aureus, N315, read-out: MIC

Compound	MIC [1, 24] [µM]	MIC [2, 25] [µM]	MIC [3, 26] [µM]	MIC [5] [µM]	MIC [6, 27] [µM]	MIC [7, 28] [µM]	MIC [8, 29] [µM]	MIC [10, 30] [µM]	MIC [14] [µM]	MIC [16, 31] [µM]	MIC [17] [µM]	MIC [4, 32] [µM]	MIC [18] [µM]	MIC [19] [µM]	MIC [20] [µM]	MIC [21] [µM]	MIC [22] [µM]	MIC [9, 33] [µM]	MIC [11, 34] [µM]	MIC [12, 35] [µM]	other results
CCCCc1nc(Cl)c(C2NC(=O)NC(CN3CCN(CC(O)c4nccs4)CC3)=C2C(=O)OCC)[nH]1 (stereo not given)	50 (≈ 27.6 µg/mL)	199 (≈ 110 µg/mL)	50 (≈ 27.6 µg/mL)	199 (≈ 110 µg/mL)	50 (≈ 27.6 µg/mL)	455 (≈ 251 µg/mL)	455 (≈ 251 µg/mL)	199 (≈ 110 µg/mL)	99 (≈ 54.7 µg/mL)	199 (≈ 110 µg/mL)	–	–	–	–	–	–	–	–	–	–	MIC [1]: 58 µM (≈ 32 µg/mL); MIC [2]: 233 µM (≈ 129 µg/mL); MIC [3]: 58 µM (≈ 32 µg/mL); MIC [4]: 50 µM and 116 µM; MIC [6]: 58 µM (≈ 32 µg/mL); MIC [7]: 466 µM (≈ 257 µg/mL); MIC [8]: 466 µM (≈ 257 µg/mL); MIC [9]: 99 µM and 233 µM; MIC [10]: 116 µM (≈ 64 µg/mL); MIC [11]: 50 µM and 116 µM; MIC [12]: 50 µM and 116 µM; MIC [13]: 227 µM and 466 µM; MIC [15]: 199 µM and 466 µM; MIC [16]: 116 µM (≈ 64 µg/mL)
CCCCc1nc(Cl)c(C2NC(=O)NC(CN3CCN(CC(=O)c4ccc(Cl)cc4)CC3)=C2C(=O)OCC)[nH]1 (stereo not given)	222 (≈ 128 µg/mL)	222 (≈ 128 µg/mL)	56 (≈ 32.3 µg/mL)	56 (≈ 32.3 µg/mL)	56 (≈ 32.3 µg/mL)	444 (≈ 256 µg/mL)	444 (≈ 256 µg/mL)	111 (≈ 64.1 µg/mL)	444 (≈ 256 µg/mL)	56 (≈ 32.3 µg/mL)	222 (≈ 128 µg/mL)	111 (≈ 64.1 µg/mL)	28 (≈ 16.2 µg/mL)	111 (≈ 64.1 µg/mL)	14 (≈ 8.09 µg/mL)	222 (≈ 128 µg/mL)	28 (≈ 16.2 µg/mL)	444 (≈ 256 µg/mL)	111 (≈ 64.1 µg/mL)	56 (≈ 32.3 µg/mL)	MIC [13, 36]: 444 µM (≈ 256 µg/mL); MIC [15, 37]: 222 µM (≈ 128 µg/mL); MIC [23]: 111 µM (≈ 64.1 µg/mL)
CCCCc1nc(Cl)c(C2NC(=O)NC(CN3CCN(CC(=O)c4nccs4)CC3)=C2C(=O)OCC)[nH]1 (stereo not given)	29 (≈ 16 µg/mL)	117 (≈ 64.4 µg/mL)	58 (≈ 31.9 µg/mL)	117 (≈ 64.4 µg/mL)	58 (≈ 31.9 µg/mL)	466 (≈ 256 µg/mL)	466 (≈ 256 µg/mL)	58 (≈ 31.9 µg/mL)	29 (≈ 16 µg/mL)	58 (≈ 31.9 µg/mL)	58 (≈ 31.9 µg/mL)	58 (≈ 31.9 µg/mL)	58 (≈ 31.9 µg/mL)	58 (≈ 31.9 µg/mL)	29 (≈ 16 µg/mL)	117 (≈ 64.4 µg/mL)	15 (≈ 8.25 µg/mL)	117 (≈ 64.4 µg/mL)	58 (≈ 31.9 µg/mL)	58 (≈ 31.9 µg/mL)	MIC [13, 36]: 466 µM (≈ 256 µg/mL); MIC [15, 37]: 117 µM (≈ 64.4 µg/mL); MIC [23]: 58 µM (≈ 31.9 µg/mL)
